Measurements as given in ChEMBL document CHEMBL5584328, “Integrating computational and experimental chemical biology revealed variable anticancer activities of phosphodiesterase isoenzyme 5 inhibitors (PDE5i) in lung cancer” (RSC Med Chem, 2024).
Activity calls are given as the source filed them. The rule behind the calls is not given here.

What was measured:
A549 [1] = test: Antiproliferative activity against human A549 cells measured after 48 hrs by MTT assay; format: functional, cell-based; settings: for IC50: A549, 48 h
NCI-H1299 [2] = test: Antiproliferative activity against human NCI-H1299 cells measured after 48 hrs by MTT assay; format: functional, cell-based; settings: for IC50: NCI-H1299, 48 h
NCI-H661 [3] = test: Antiproliferative activity against human NCI-H661 cells measured after 48 hrs by MTT assay; format: functional, cell-based; settings: for IC50: NCI-H661, 48 h
A549 [4] = test: Antiproliferative activity against human A549 cells measured after 24 hrs by MTT assay; format: functional, cell-based
A549 [5] = test: Antiproliferative activity against human A549 cells measured after 72 hrs by MTT assay; format: functional, cell-based
NCI-H1299 [6] = test: Antiproliferative activity against human NCI-H1299 cells measured after 24 hrs by MTT assay; format: functional, cell-based
NCI-H1299 [7] = test: Antiproliferative activity against human NCI-H1299 cells measured after 72 hrs by MTT assay; format: functional, cell-based
NCI-H661 [8] = test: Antiproliferative activity against human NCI-H661 cells measured after 24 hrs by MTT assay; format: functional, cell-based
NCI-H661 [9] = test: Antiproliferative activity against human NCI-H661 cells measured after 72 hrs by MTT assay; format: functional, cell-based
A549 [10] = test: Antiproliferative activity against human A549 cells by MTT assay; format: functional, cell-based; settings: time 24-72 hrs, TDE = time-dependent effect
NCI-H1299 [11] = test: Antiproliferative activity against human NCI-H1299 cells by MTT assay; format: functional, cell-based; settings: time 24-72 hrs, TDE = time-dependent effect
NCI-H661 [12] = test: Antiproliferative activity against human NCI-H661 cells by MTT assay; format: functional, cell-based; settings: time 24-72 hrs, TDE = time-dependent effect
A549 [13] = test: Potentiation of cisplatin-induced cytotoxicity against human A549 cells assessed as combination index at 1:7 ratio of cisplatin to compound measured after 48 hrs by MTT assay; format: functional
NCI-H1299 [14] = test: Potentiation of cisplatin-induced cytotoxicity against human NCI-H1299 cells assessed as combination index at 1:9 ratio of cisplatin to compound measured after 48 hrs by MTT assay; format: functional
NCI-H661 [15] = test: Potentiation of cisplatin-induced cytotoxicity against human NCI-H661 cells assessed as combination index at 1:9 ratio of cisplatin to compound measured after 48 hrs by MTT assay; format: functional
A549 [16] = test: Potentiation of cisplatin-induced cytotoxicity against human A549 cells assessed as fold reduction in cisplatin IC50 at 1:7 ratio of cisplatin to compound measured after 48 hrs by MTT assay relative to cisplatin alone; format: functional
NCI-H1299 [17] = test: Potentiation of cisplatin-induced cytotoxicity against human NCI-H1299 cells assessed as fold reduction in cisplatin IC50 at 1:9 ratio of cisplatin to compound measured after 48 hrs by MTT assay relative to cisplatin alone; format: functional
NCI-H661 [18] = test: Potentiation of cisplatin-induced cytotoxicity against human NCI-H661 cells assessed as fold reduction in cisplatin IC50 at 1:9 ratio of cisplatin to compound measured after 48 hrs by MTT assay relative to cisplatin alone; format: functional
A549 [19] = test: Potentiation of raloxifene-induced cytotoxicity against human A549 cells assessed as combination index at 1:4 ratio of raloxifene to compound measured after 48 hrs by MTT assay; format: functional
NCI-H1299 [20] = test: Potentiation of raloxifene-induced cytotoxicity against human NCI-H1299 cells assessed as combination index at 1:5 ratio of raloxifene to compound measured after 48 hrs by MTT assay; format: functional
NCI-H661 [21] = test: Potentiation of raloxifene-induced cytotoxicity against human NCI-H661 cells assessed as combination index at 1:5 ratio of raloxifene to compound measured after 48 hrs by MTT assay; format: functional
A549 [22] = test: Potentiation of raloxifene-induced cytotoxicity against human A549 cells assessed as fold reduction in raloxifene IC50 at 1:4 ratio of raloxifene to compound measured after 48 hrs by MTT assay relative to raloxifene alone; format: functional
NCI-H1299 [23] = test: Potentiation of raloxifene-induced cytotoxicity against human NCI-H1299 cells assessed as fold reduction in raloxifene IC50 at 1:5 ratio of raloxifene to compound measured after 48 hrs by MTT assay relative to raloxifene alone; format: functional
NCI-H661 [24] = test: Potentiation of raloxifene-induced cytotoxicity against human NCI-H661 cells assessed as fold reduction in raloxifene IC50 at 1:5 ratio of raloxifene to compound measured after 48 hrs by MTT assay relative to raloxifene alone; format: functional
NCI-H1299 [25] = test: Antimigratory activity against human NCI-H1299 cells assessed as reduction in wound closure measured after 24 hrs by wound healing assay; format: functional, cell-based
A549 [26] = test: Inhibition of colony formation in human A549 cells assessed as reduction in number of colonies at 85 to 170 uM measured after 48 hrs by colony formation assay; format: functional, cell-based; settings: dose 85-170 µM
A549 [27] = test: Inhibition of colony formation in human A549 cells assessed as reduction in size of colonies at 85 to 170 uM measured after 48 hrs by colony formation assay; format: functional, cell-based; settings: dose 85-170 µM
A549 [28] = test: Induction of apoptosis in human A549 cells assessed as increase in apoptotic cells at 340 uM measured after 48 hrs by Annexin V-FITC/PI staining based flow cytometry relative to control; format: functional
A549 [29] = test: Cell cycle arrest in human A549 cells assessed as increase in cell population at G0/G1 phase at 85 uM measured after 48 hrs by propidium iodide staining based flow cytometry; format: functional
A549 [30] = test: Reduction in PDE5 gene expression in human A549 cells at 0.1 IC50 measured after 48 hrs by qRT-PCR analysis; format: functional, cell-based
A549 [31] = test: Reduction in Bcl-2 gene expression in human A549 cells at 0.1 IC50 measured after 48 hrs by qRT-PCR analysis; format: functional, cell-based
A549 [32] = test: Reduction in PDE5 protein expression in human A549 cells at 0.25 to 0.5 IC50 measured after 48 hrs by Western blot analysis; format: functional, cell-based

`O=C(c1ccc(OCCN2CCCCC2)cc1)c1c(-c2ccc(O)cc2)sc2cc(O)ccc12` [RALOXIFENE] showed an IC50 (A549 [1]) of 45.6 µM, an IC50 (NCI-H1299 [2]) of 45 µM and an IC50 (NCI-H661 [3]) of 44.5 µM.
`COc1ccc(CNc2nc(N3CCC[C@H]3CO)ncc2C(=O)NCc2ncccn2)cc1Cl` [AVANAFIL] was tested, and the Activity (A549 [4]) was “Dose-Dependent Effect”, the IC50 (A549 [4]; A549, 24 h) was 127 µM and the Activity (A549 [1]) was “Dose-Dependent Effect”. For the same compound, the IC50 (A549 [1]) was 170 µM, the Activity (A549 [5]) was “Dose-Dependent Effect” and the IC50 (A549 [5]; A549, 72 h) was 131 µM. For the same compound, the Activity (NCI-H1299 [6]) was “Dose-Dependent Effect”, the IC50 (NCI-H1299 [6]; NCI-H1299, 24 h) was 162 µM and the Activity (NCI-H1299 [2]) was “Dose-Dependent Effect”. For the same compound, the IC50 (NCI-H1299 [2]) was 184 µM, the Activity (NCI-H1299 [7]) was “Dose-Dependent Effect” and the IC50 (NCI-H1299 [7]; NCI-H1299, 72 h) was 169 µM. The Activity (NCI-H661 [8]) was “Dose-Dependent Effect”, the IC50 (NCI-H661 [8]; NCI-H661, 24 h) was 264 µM and the Activity (NCI-H661 [3]) was “Dose-Dependent Effect”. The IC50 (NCI-H661 [3]) was 186 µM, the Activity (NCI-H661 [9]) was “Dose-Dependent Effect” and the IC50 (NCI-H661 [9]; NCI-H661, 72 h) was 78.5 µM. For the same compound, the Activity (A549 [10]) was “Tde”, the Activity (NCI-H1299 [11]) was “Tde” and the Activity (NCI-H661 [12]) was “Tde”. For the same compound, the CI (A549 [13]) was 0.95, the CI (NCI-H1299 [14]) was 0.69 and the CI (NCI-H661 [15]) was 0.89. For the same compound, the “fold change (FC)” value (A549 [16]) was 2.1, the “fold change (FC)” value (NCI-H1299 [17]) was 2.8 and the “fold change (FC)” value (NCI-H661 [18]) was 2.4. The CI (A549 [19]) was 0.99, the CI (NCI-H1299 [20]) was 0.73 and the CI (NCI-H661 [21]) was 0.9. For the same compound, the “fold change (FC)” value (A549 [22]) was 1.9, the “fold change (FC)” value (NCI-H1299 [23]) was 3 and the “fold change (FC)” value (NCI-H661 [24]) was 2.7. For the same compound, the Activity (NCI-H1299 [25]) was “Dose-Dependent Effect”, the inhibition (A549 [26]) was “Active” and the inhibition (A549 [27]) was “Active”. The Activity (A549 [28]) was 44%, the Activity (A549 [29]) was “Active” and the Activity (A549 [30]) was “Active”. For the same compound, the Activity (A549 [31]) was “Active” and the Activity (A549 [32]) was “Dose-Dependent Effect”.
